In the supplement of paper PMC10307832:

How the values were obtained:
Assay in all cases: relative viability (nuclei count vs DMSO), 5 days (fraction); higher = more cells survive
Daporinad + Tozasertib = compound: O=C(/C=C/c1cccnc1)NCCCCC1CCN(C(=O)c2ccccc2)CC1 [Daporinad] + Cc1cc(Nc2cc(N3CCN(C)CC3)nc(Sc3ccc(NC(=O)C4CC4)cc3)n2)n[nH]1 [Tozasertib] (partner 0.1 µM)
In short: (§1)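 Relative viability divides the nuclei count in treated wells by that in vehicle wells. Lung cancer cell lines were seeded in 1536-well plates, dosed by pin tool the next day, and fixed and stained after 5 days in one step with final 0.05% Triton X-100, 1% formaldehyde and 1 ug/ml Hoechst. Dosing was a single drug or a fixed anchor-drug dose plus five library-drug doses (not always all listed) in √10 steps, and values are medians of duplicate plates imaged at 4×.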

Daporinad + Olaparib = compound: O=C(/C=C/c1cccnc1)NCCCCC1CCN(C(=O)c2ccccc2)CC1 [Daporinad] + O=C(c1cc(Cc2n[nH]c(=O)c3ccccc23)ccc1F)N1CCN(C(=O)C2CC2)CC1 [Olaparib] (partner 8 µM)
In short: as §1

Daporinad + Alpelisib = compound: O=C(/C=C/c1cccnc1)NCCCCC1CCN(C(=O)c2ccccc2)CC1 [Daporinad] + Cc1nc(NC(=O)N2CCC[C@H]2C(N)=O)sc1-c1ccnc(C(C)(C)C(F)(F)F)c1 [Alpelisib] (partner 2 µM)
In short: as §1

R406 + Lapatinib = compound: COc1cc(Nc2ncc(F)c(Nc3ccc4c(n3)NC(=O)C(C)(C)O4)n2)cc(OC)c1OC [R406] + CS(=O)(=O)CCNCc1ccc(-c2ccc3ncnc(Nc4ccc(OCc5cccc(F)c5)c(Cl)c4)c3c2)o1 [Lapatinib] (partner 2 µM)
In short: as §1

Cell Line	relative viability (Daporinad + Tozasertib; first compound 0.0005 µM)	relative viability (Daporinad + Tozasertib; first compound 0.001581 µM)	relative viability (Daporinad + Tozasertib; first compound 0.005 µM)	relative viability (Daporinad + Tozasertib; first compound 0.01581 µM)	relative viability (Daporinad + Olaparib; first compound 0.0005 µM)	relative viability (Daporinad + Olaparib; first compound 0.001581 µM)	relative viability (Daporinad + Olaparib; first compound 0.005 µM)	relative viability (Daporinad + Olaparib; first compound 0.01581 µM)	relative viability (Daporinad + Alpelisib; first compound 0.0005 µM)	relative viability (Daporinad + Alpelisib; first compound 0.001581 µM)	relative viability (Daporinad + Alpelisib; first compound 0.005 µM)	relative viability (Daporinad + Alpelisib; first compound 0.01581 µM)	relative viability (R406 + Lapatinib; first compound 0.08 µM)	relative viability (R406 + Lapatinib; first compound 0.253 µM)	relative viability (R406 + Lapatinib; first compound 8 µM)	relative viability (R406 + Lapatinib; first compound 0.8 µM)	relative viability (R406 + Lapatinib; first compound 2.53 µM)
NCI-H460	0.43	0.386	0.6	0.56	0.399	0.375	0.184	0.143	0.54	0.64	0.502	0.566	1.07	1.51	0.308	–	–
NCI-H520	0.446	0.507	0.25	0.184	0.261	0.202	0.221	0.153	0.967	0.546	0.196	0.166	0.733	1.03	0.133	1.02	0.241
NCI-H596	0.879	0.929	1.1	0.65	0.647	0.562	0.542	0.441	0.539	0.551	0.617	0.372	1.04	1.2	0.421	0.972	0.867
NCI-H647	0.308	0.305	0.285	0.508	0.624	0.547	0.224	0.156	1.2	1.07	1.19	1.05	0.84	1.17	0.157	1.78	0.0824
NCI-H650	0.691	0.853	0.738	0.835	0.358	0.462	0.346	0.285	1.08	1.24	1.32	1.38	0.877	1.04	0.52	1.02	0.243
NCI-H661	0.368	0.339	0.345	0.292	0.687	0.616	0.665	0.402	0.635	0.506	0.649	0.401	0.435	0.48	0.277	0.413	0.362
NCI-H727	0.737	0.608	0.555	0.62	0.571	0.682	0.623	0.539	0.622	0.479	0.619	0.497	0.918	0.85	0.712	0.905	0.195
NCI-H838	0.25	0.322	0.229	0.177	0.699	0.631	0.482	0.341	0.973	1.03	1.06	0.512	0.886	1.11	0.182	1.36	0.114
NCI-H1355	0.519	0.558	0.58	0.631	0.693	0.737	0.6	0.479	0.719	0.873	1.02	0.856	0.887	0.974	0.764	1.08	0.901
NCI-H1395	0.7	0.764	0.771	0.839	0.436	0.471	0.432	0.425	0.987	1.16	1.39	1.31	0.821	1.1	0.491	0.986	0.851
NCI-H1437	0.49	0.401	0.405	0.4	0.619	0.624	0.633	0.548	1	1.01	1.03	0.936	0.689	1.01	0.328	1.07	0.265
NCI-H1651	0.615	0.814	0.601	0.663	0.159	0.15	0.131	0.138	1.04	0.905	0.895	0.923	0.694	0.87	0.275	0.944	0.234
NCI-H1666	0.619	0.635	0.655	0.701	0.754	0.644	0.669	0.679	1.04	1.13	1.23	0.881	0.784	0.79	0.336	0.708	0.452
NCI-H1734	0.283	0.262	0.285	0.263	0.567	0.443	0.327	0.241	0.703	0.736	0.695	0.582	1.03	1.1	0.621	1.1	0.426
NCI-H1755	0.449	0.544	0.533	0.638	0.838	0.891	0.84	0.843	0.883	0.979	0.599	0.898	1.03	1.07	0.329	1.04	0.678
NCI-H1793	0.327	0.326	0.34	0.553	0.829	0.952	0.81	0.835	0.745	0.749	0.732	0.792	0.823	0.692	0.207	0.641	0.144
NCI-H1915	0.476	0.401	0.485	0.494	0.265	0.247	0.193	0.184	1.04	1.09	1.14	1.11	0.991	1.09	0.778	1.03	0.806
